Tests used:
[1] = tested on: Akt; assay: H2O2-induced phosphorylation of Akt in PMA-differentiated U937 cells (western blot); type: cell-based, human; conditions: PMA-differentiated U937; H2O2 1 mM 30 min
Method in brief: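 PMA-differentiated U937 macrophage-like cells pretreated with compound 20 min, then stimulated with 1 mM H2O2 for 30 min. pAkt measured by western blot densitometry, normalised to total protein and expressed as fold change versus H2O2-only control; mean ± SEM of 3–4 experiments.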

[2] = tested on: U937 cells; assay: H2O2-induced steroid insensitivity in U937 cells (dexamethasone IC50 on TNFα-induced IL-8); type: cell-based, human; conditions: highest concentration tested (100 μM); H2O2 200 μM
Method: Cytokine ELISA. LPS-induced IL-8, TNFα concentrations and TNFα-induced IL-8 concentrations are determined by sandwich ELISA according to the manufacturer's instructions (R&D Systems Europe). IC50 values for dexamethasone on IL-8 production are calculated using the computer program Prism 4.0 (GraphPad Software Inc., San Diego, Calif.) as a marker for steroid sensitivity.
Restoration of steroid sensitivity. U937 cells: U937 are treated with oxidative stress (H2O2, 200 μM or 0.15 dilution CSM (cigarette smoke conditioned medium)) and 4 hours later, stimulated with TNFα (10 ng/ml) in the presence of dexamethasone (10^−11-10^−6M). Supernatant and cells are collected 24 hrs after stimulation and IL-8 is measured by conventional ELISA. As the index of corticosteroid sensitivity, IC50 of dexamethasone is calculated. Test compounds are treated 20 min before oxidative stress treatment.
Effects of compounds on H2O2-induced steroid insensitivity in U937 cells. Cells stimulated with H2O2 (200 μM) overnight are incubated with compounds described herein for 30 min under H2O2 (200 μM) exposure. The cells are treated with dexamethasone (10^−11 to 10^−6 M) for 20 min, followed by the TNFα stimulation overnight. TNFα-induced IL-8 release is evaluated by ELISA and IC50 values for dexamethasone on IL-8 production are calculated using Prism. Data are expressed as fold changes against positive control treated with H2O2 only. Values represent means of four experiments±SEM. H2O2 exposure reduces dexamethasone sensitivity by approximately 4 fold based on calculated IC50 values of TNFα-induced IL-8 production.

[3] = tested on: MMP9; conditions: macrophages in sputum of COPD patients; cited from earlier work
[4] = tested on: HDAC activity; assay: H2O2-induced reduction of HDAC activity in PMA-differentiated U937 cells; type: cell-based, human; conditions: PMA-differentiated U937
Method in brief: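 U937 cells PMA-differentiated for 3 days, pretreated with compound for 20 min, then exposed to 200 μM H2O2 for 4 h with Fluor de Lys substrate present. Whole-cell HDAC activity measured fluorimetrically. Data expressed as fold change versus H2O2-only control, mean of four experiments ± SEM.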

[5] = tested on: U937 cells; conditions: H2O2-induced insensitivity on TNF-α-induced IL-8 production; cited from earlier work
[6] = tested on: IL-8; assay: LPS-induced IL-8 release in PMA-differentiated U937 cells (ELISA); type: cell-based, human; conditions: LPS 100 ng/ml 4 hrs
Method in brief: (§1)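 PMA-differentiated U937 macrophage-like cells were pretreated with compound for 1 hr, then stimulated with LPS (100 ng/ml) for 4 hrs. Released IL-8 and TNFα were quantified by sandwich ELISA. Values are means of three experiments ± SEM.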

[7] = tested on: PBMCs from COPD patients; conditions: PBMCs obtained from COPD patients; cited from earlier work
[8] = tested on: HDAC2 mRNA; assay: Cigarette smoke extract-induced reduction of HDAC2 mRNA in A549 cells; type: cell-based, human; conditions: A549; CSE
Method: Preparations of cigarette smoke extract. To prepare the cigarette smoke extract, two full-strength Marlboro cigarettes (filters removed; Phillip Morris USA, Richmond, Va.) are combusted through a modified 60-ml syringe apparatus, and the smoke passed through 20 ml of DMEM medium. Each cigarette generally yields five draws of the syringe (to the 60-ml mark), with each individual draw taking approximately 10 s to complete. Cigarette smoke extract is then passed through a 0.20-μm filter to sterilize and remove particulate matter and is used immediately unless otherwise stated.
Quantitative RT-PCR. Total RNA extraction and reverse transcription are performed using an RNeasy kit (QIAGEN, Crawley, UK) and a High-Capacity cDNA Reverse Transcription Kits (Applied Biosystems, Foster City, Calif.). Gene transcript level of HDAC2 (HS00231032_M1, Applied Biosystems, California, USA) and the house-keeping gene, guanine nucleotide binding protein beta polypeptide-2-like 1 (GNB2L1) (HS00272002_M1, Applied Biosystems) are quantified by real-time PCR using a TaqMan® Gene Expression Master Mix (Applied Biosystems) on a Rotor-Gene 6000 (Corbett Research, Cambridge, UK). Transcripts are analysed by the delta (D) CT method and variations in cDNA concentrations between different samples were corrected using GNB2L1.
Effects of macrolides on cigarette smoke extract-induced (CSE-induced) reduction of HDAC2 mRNA in A549 cells. Cells pretreated with compounds described herein for 30 min are exposed to CSE (0.15 O.D.) for 1 hr. The cells are washed twice and incubated with medium only for 4 hrs. Data are expressed as % reduction from baseline (left) or % increase from baseline under H2O2. Values represent means of three experiments±SEM. Example 33 reverses cigarette smoke extract-induced (CSE-induced) reduction of HDAC2 mRNA expression in A549 cells at concentrations of about 10 μM or greater, and with statistical significance of p<0.05 versus treatment with CSE only (one-way ANOVA with post hoc test, n=3) at doses of about 30 μM or greater.

[9] = tested on: HDAC2; conditions: reduced by oxidative stress; cited from earlier work
[10] = tested on: TNFα; assay: LPS-induced TNFα release in PMA-differentiated U937 cells (ELISA); type: cell-based, human; conditions: LPS 100 ng/ml 4 hrs
Method in brief: as §1

[11] = tested on: A/J mice exposed to LPS; assay: Anti-inflammatory activity in vivo: A/J mice exposed to LPS intranasally; conditions: intranasal, 1 hr before LPS challenge

SMILES: CC[C@H]1OC(=O)[C@H](C)[C@@H](O[C@H]2C[C@@](C)(OC)[C@@H](O)[C@H](C)O2)[C@H](C)[C@@H](O[C@@H]2O[C@H](C)C[C@H](N(C)C)[C@H]2O)[C@](C)(O)C[C@@H](C)C(=O)[C@H](C)[C@@H](O)[C@]1(C)O [ERY, erythromycin]
- inhibition of Akt phosphorylation compared with Example 33 [1]: at comparable concentrations
- restoration of dexamethasone sensitivity [2]: None of ERY, CLR, or AZI restored dexamethasone sensitivity
- MMP9 expression (reported) [3]: inhibited MMP9 expression
- restoration of HDAC activity compared with Example 33 ([4]; H2O2 200 μM 4 hrs): only at much higher doses than Example 33
- HDAC activity reached compared with untreated controls ([4]; H2O2 200 μM, comparators at highest doses tested): only restore HDAC activity to levels comparable to untreated controls
- restoration of corticosteroid sensitivity (reported) [5]: restore corticosteroid sensitivity
- inhibition of LPS-induced IL-8 release compared with Example 33 [6]: did not show any inhibition at any concentration tested
- restoration of corticosteroid sensitivity (reported) [7]: restore corticosteroid sensitivity
- reversal of HDAC mRNA expression reduction compared with Example 33 [8]: only at much higher doses than Example 33
- HDAC2 promoter activity and protein expression (reported) [9]: restore HDAC2 promoter activity and protein expression
- inhibition of LPS-induced TNFα release compared with Example 33 [10]: did not show any inhibition at any concentration tested
- anti-inflammatory action in LPS-exposed A/J mice [11]: have anti-inflammatory action

Reference: patent publication US9937194B1, “Compounds and methods for treating inflammatory diseases” (priority 2009, dated 2018)
